Measured values as given in the NIST ThermoML archive (doi:10.1021/je050065n).
± gives the expanded uncertainty stated by the source.

Key:
[1] = Molar enthalpy of transition or fusion; settings: Crystal
[2] = molar heat capacity at constant pressure; settings: 101.33 kPa

CCCCCCCCCCC(=O)OCC [ethyl undecanoate]
Settings | Molar enthalpy of transition or fusion [kJ/mol] | Normal melting temperature [°C] | Triple point temperature [K]
Crystal | – | – | 259.17 ± 0.31
Metastable crystal | – | -21.8 ± 0.1 | –
[1] | 36.1 ± 0.3 | – | –

[2]
Settings | molar heat capacity at constant pressure [J/K/mol]
111.58 K, Crystal | 173.66 ± 3
113.84 K, Crystal | 175.94 ± 3
116.71 K, Crystal | 178.91 ± 3
119.57 K, Crystal | 181.88 ± 3.1
122.42 K, Crystal | 185.27 ± 3.1
128.15 K, Crystal | 190.48 ± 3.1
131.02 K, Crystal | 194.47 ± 3.2
133.86 K, Crystal | 198.69 ± 3.2
136.66 K, Crystal | 198.56 ± 3.2
139.44 K, Crystal | 201.64 ± 3.2
142.19 K, Crystal | 204.69 ± 3.2
144.9 K, Crystal | 207.94 ± 3.3
147.59 K, Crystal | 211.29 ± 3.3
150.26 K, Crystal | 213.75 ± 3.3
152.89 K, Crystal | 217.3 ± 3.3
155.51 K, Crystal | 220.97 ± 3.4
158.1 K, Crystal | 224.09 ± 3.4
160.67 K, Crystal | 229.12 ± 3.4
163.21 K, Crystal | 233.25 ± 3.5
165.73 K, Crystal | 236.15 ± 3.5
168.24 K, Crystal | 230.57 ± 3.4
170.74 K, Crystal | 232.17 ± 3.5
173.23 K, Crystal | 234.76 ± 3.5
175.7 K, Crystal | 236.78 ± 3.5
178.15 K, Crystal | 239.4 ± 3.5
180.59 K, Crystal | 242.15 ± 3.5
183.01 K, Crystal | 244.19 ± 3.5
185.42 K, Crystal | 245.75 ± 3.6
187.81 K, Crystal | 248.17 ± 3.6
190.18 K, Crystal | 251.89 ± 3.6
192.55 K, Crystal | 256.43 ± 3.6
194.9 K, Crystal | 257.21 ± 3.7
197.24 K, Crystal | 257.78 ± 3.7
199.56 K, Crystal | 262.12 ± 3.7
201.88 K, Crystal | 266.33 ± 3.7
204.18 K, Crystal | 269.86 ± 3.8
206.47 K, Crystal | 268.45 ± 3.8
208.75 K, Crystal | 272.25 ± 3.8
211.01 K, Crystal | 276.09 ± 3.8
213.26 K, Crystal | 279.59 ± 3.8
215.5 K, Crystal | 279.55 ± 3.8
217.73 K, Crystal | 283.48 ± 3.9
219.95 K, Crystal | 287.5 ± 3.9
222.16 K, Crystal | 290.42 ± 3.9
224.36 K, Crystal | 293.74 ± 4
226.54 K, Crystal | 297.69 ± 4
228.71 K, Crystal | 302.05 ± 4
230.87 K, Crystal | 307.08 ± 4.1
233.01 K, Crystal | 312.1 ± 4.1
235.14 K, Crystal | 318.94 ± 4.2
237.26 K, Crystal | 327.12 ± 4.2
239.36 K, Crystal | 337.32 ± 4.3
241.44 K, Crystal | 349.15 ± 4.4
243.49 K, Crystal | 366.65 ± 4.5
245.51 K, Crystal | 390.29 ± 4.7
247.49 K, Crystal | 425.06 ± 5
265.23 K, Liquid | 419.66 ± 2.5
267.18 K, Liquid | 419.56 ± 2.5
269.12 K, Liquid | 420.55 ± 2.5
271.06 K, Liquid | 421.01 ± 2.5
272.99 K, Liquid | 421.34 ± 2.5
274.93 K, Liquid | 422.4 ± 2.5
276.86 K, Liquid | 423.5 ± 2.5
278.79 K, Liquid | 424.54 ± 2.5
280.72 K, Liquid | 424.74 ± 2.5
282.65 K, Liquid | 425.25 ± 2.5
284.57 K, Liquid | 425.82 ± 2.5
286.49 K, Liquid | 426.92 ± 2.5
288.42 K, Liquid | 427.56 ± 2.5
290.34 K, Liquid | 427.6 ± 2.5
292.25 K, Liquid | 429.47 ± 2.5
292.35 K, Liquid | 429.73 ± 2.5
293.82 K, Liquid | 430.15 ± 2.5
294.17 K, Liquid | 430.48 ± 2.5
295.74 K, Liquid | 431.35 ± 2.5
296.09 K, Liquid | 431.3 ± 2.5
297.65 K, Liquid | 432.04 ± 2.5
298 K, Liquid | 431.45 ± 2.5
299.55 K, Liquid | 433.51 ± 2.5
299.92 K, Liquid | 432.3 ± 2.5
301.45 K, Liquid | 434.67 ± 2.5
301.84 K, Liquid | 434.2 ± 2.5
303.35 K, Liquid | 436.03 ± 2.5
303.75 K, Liquid | 436.09 ± 2.5
305.23 K, Liquid | 437.3 ± 2.5
305.67 K, Liquid | 436.86 ± 2.5
307.12 K, Liquid | 438.29 ± 2.5
307.58 K, Liquid | 437.94 ± 2.5
309 K, Liquid | 438.55 ± 2.5
309.5 K, Liquid | 438.69 ± 2.5
310.87 K, Liquid | 439.73 ± 2.6
311.41 K, Liquid | 439.51 ± 2.6
312.74 K, Liquid | 440.36 ± 2.6
313.32 K, Liquid | 440.63 ± 2.6
314.61 K, Liquid | 441.72 ± 2.6
315.24 K, Liquid | 441.69 ± 2.6
316.48 K, Liquid | 441.83 ± 2.6
317.15 K, Liquid | 443.16 ± 2.6
318.35 K, Liquid | 443.44 ± 2.6
320.22 K, Liquid | 444.36 ± 2.6
322.09 K, Liquid | 445.9 ± 2.6
323.96 K, Liquid | 447.6 ± 2.6
325.83 K, Liquid | 448.49 ± 2.6
327.7 K, Liquid | 449.5 ± 2.6
329.57 K, Liquid | 450.4 ± 2.6
331.44 K, Liquid | 451.66 ± 2.6
333.31 K, Liquid | 453.33 ± 2.6
335.19 K, Liquid | 455.41 ± 2.6
337.06 K, Liquid | 456.14 ± 2.6
338.94 K, Liquid | 456.81 ± 2.6
340.81 K, Liquid | 458.35 ± 2.6
342.69 K, Liquid | 459.47 ± 2.6
344.57 K, Liquid | 461 ± 2.6
346.45 K, Liquid | 462.31 ± 2.6
348.34 K, Liquid | 463.75 ± 2.7
350.22 K, Liquid | 465.1 ± 2.7
352.11 K, Liquid | 466.34 ± 2.7
354 K, Liquid | 467.34 ± 2.7
355.9 K, Liquid | 468.59 ± 2.7
357.8 K, Liquid | 469.5 ± 2.7
359.7 K, Liquid | 471.05 ± 2.7
361.6 K, Liquid | 472.21 ± 2.7
363.51 K, Liquid | 473.69 ± 2.7
365.42 K, Liquid | 475.18 ± 2.7
